Measurements reported in PMC7052167, “TCR–pMHC bond conformation controls TCR ligand discrimination” (Cellular and Molecular Immunology, 2019).

Legend:
Type in all cases: cell-based, mouse
[1] = test system: 5C.C7 T cell; assay: T-cell calcium signaling (fluorescence imaging); settings: 10 μM PP2; X-Rhod-5F indicator, 37 °C
Excerpt: To understand how the TCR–pMHC bond conformation triggers T-cell signaling, we devised a fluorescence micropipette assay to measure real-time T-cell calcium signaling at the single-cell level. Fast single T-cell calcium flux was observed upon T cell/APC contact (bond formation). Consistently, the calcium signaling amplitude and speed were dependent on the peptide potency (Fig. 5e, f, Fig. S15, and Movie S7). To link the TCR conformational change to TCR signaling, we simultaneously plotted the association of the TCR–CD3ζ conformational change with the Ca^2+ signal against the stimulation time. […] Ca^2+ release in turn drives the dissociation of positively charged CD3ζ from the negatively charged phospholipids in the plasma membrane[32] to expose the CD3ζ ITAM domains for phosphorylation via a Ca^2+ signaling feedback loop (Fig. 5h).
(§1) To measure the TCR–pMHC bond distance by smFRET in the absence of CD4 binding, T cells were incubated with 10 μg/mL anti-CD4 antibody (GK 1.5, Biolegend) and 0.027 µg/µL of Cy5-J1 scFV for 30 min at 4 °C. After three washes, the cells were added to a lipid bilayer containing Cy3-pMHCs, and smFRET assays were performed in the continuous presence of 10 μg/mL anti-CD4 antibody at 37 °C using TIRF microscopy. […]

[2] = test system: TCR microclusters of 5C.C7 T cells; assay: TCR microcluster formation at the T-cell synapse; settings: 10 μM PP2
Excerpt: TCRs form microclusters upon antigen stimulation (Movie S4). To measure the conformational dynamics of single TCR–pMHC bonds without possible interference from TCR microclusters, we used latrunculin A (LA) to prevent the formation of TCR microclusters during smFRET measurements. […] We then performed smFRET in the absence of TCR microclusters.
To test whether TCR–CD3ζ conformational changes were dependent on TCR signaling, we used an Src kinase inhibitor PP2[27] to block TCR signaling. Consistent with the results of a previous study,[21] […] To reveal the role of TCR signaling in TCR–CD3ζ conformational changes, we plotted the time trajectories of the normalized intramolecular TCR–CD3ζ distances against the stimulation time in the absence and presence of PP2 (Fig. 4d). In the absence of PP2, the intracellular CD3ζ chain quickly separated from the TCR extracellular domain upon TCR engagement with the K5 pMHC and then reached a stable, fully extended TCR–CD3ζ conformation.
as §1

[3] = test system: TCR–CD3ζ complex of 5C.C7 T cells; assay: Transmembrane TCR–CD3ζ FRET2 (GFP/Alexa Fluor 568), intramolecular TCR–CD3ζ distance; settings: 10 μM PP2
Excerpt: To determine the conformation of a single TCR–pMHC bond, a TCR and a pMHC were site-specifically labeled with the FRET acceptor Cy5 and the FRET donor Cy3, respectively.[8] The peptide within the MHC molecule was labeled with Cy3, and the TCR was labeled with the anti-TCR single-chain variable fragment (scFv) J1-Cy5 (Fig. 1a and Fig. S1a). The intermolecular distance between Cy3 and Cy5 provided a reasonable approximation of the conformation (or compactness) of the TCR–pMHC bond. The conformation of a single TCR–pMHC bond on the cell surface was measured by Cy3/Cy5 FRET (FRET1) (Fig. 1a) in real time by total internal reflection fluorescence (TIRF) microscopy (Fig. S1b). The Cy3/Cy5 inter-dye distance of a TCR–pMHC bond is denoted as the TCR–pMHC bond distance to describe the TCR–pMHC bond conformation in the following paragraphs. […] The real-time intramolecular distances of the TCR–CD3ζ complexes were measured by GFP/Alexa Fluor 568 FRET (FRET2) (Fig. 1a) using epifluorescence time-lapse microscopy (Fig. S1b).
It is not clear what induces the dissociation of CD3ζ from the membrane to initiate T-cell intracellular signaling. […] We tracked and measured the FRET efficiencies of each individual microcluster in real time. […]

Q: What does the source list for CC(C)(C)n1nc(-c2ccc(Cl)cc2)c2c(N)ncnc21 [PP2]?
A: effect of PP2 on T-cell calcium signaling [1]: completely abrogated T-cell calcium signaling; effect of PP2 on TCR microcluster formation [2]: TCRs could still form microclusters; effect of PP2 on TCR–CD3ζ conformational change ([3]; K5 pMHC, 37 °C): completely abolished the TCR-CD3 conformational change; effect of PP2 on TCR–CD3ζ conformational change (MCC and 102S) ([3]; MCC and 102S pMHCs, Fig. S11): this effect of TCR signaling was also found
